This passage reports cytotoxicity results from ChEMBL document CHEMBL3507680, “University of Dundee, Gates Library screen for HepG2 cell viability”.

SMILES strings stand for the structures.

A short description of this data set: Human HepG2 cell viability assay in 384 well format. Also noted: dose 125 nL, time 70.5 hour; concentration not given beside the values. The note with it: HepG2 cells, read-out: Inhibition. The format is toxicity, cell-based.

For `Cc1nsc(N2CCCN(C(=O)NCc3cccnc3)CC2)n1`, the cytotoxicity at 70.5 h is -0.506%.

`O=C(NCc1nncn1C1CC1)Nc1ccc(OC2CCC2)c(F)c1`: the cytotoxicity at 70.5 h is -1.51%. As to `CCN1CCCC1CNC(=O)CCc1cccs1` (centres undefined), the cytotoxicity at 70.5 h was -3.71%.

In the case of `O=C(c1ccc2nccn2c1)N1CCCC1c1noc(C2CC2)n1` (centres undefined), the cytotoxicity at 70.5 h was -5.7%.

Consider `CC(C)(C)NC(=O)CN1CCCN(Cc2ccc(C#N)cc2)CC1`, for which the cytotoxicity at 70.5 h is -6.11%. Regarding `Cc1cc(C)c(CCNC(=O)CN2CCCN(C(N)=O)CC2)c(C)c1`, the cytotoxicity at 70.5 h was found to be 15.4%.

`N#CCCN(Cc1ccco1)C(=O)c1ccc(OCC2CC2)cc1`: the cytotoxicity at 70.5 h is -4.89%. For the compound `CC(C)C(C)(C#N)NC(=O)CN1CCCN(Cc2ccccc2F)CC1` (centres undefined), the cytotoxicity at 70.5 h is -3.81%. As for `CCn1cnnc1C1CCN(C(=O)CC(C)n2cccc2)CC1` (centres undefined), the cytotoxicity at 70.5 h is -1.21%. The same measure for `Cc1ccccc1-n1cnnc1SCC(=O)NCC1CCCO1` (centres undefined): -8.74%; for `CCC(C)NC(=O)c1ccc(CNC(=O)CC(C)(C)C)cc1` (centres undefined): -9.82%; for `CCC(C)NC(=O)c1cccc(CNC(=O)CC(F)(F)F)c1` (centres undefined): -6.23%. Regarding `Cc1ccc(C(=O)NCCNC(=O)c2cncnc2C)cc1F`, the cytotoxicity at 70.5 h is -11.3%. As to `CCCNC(=O)CNc1cc(C(=O)NCC(F)(F)F)cc(F)c1C`, the cytotoxicity at 70.5 h was -6.37%. As to `COc1ccc(C(=O)NCCNC(=O)c2cncnc2C)cc1`, the cytotoxicity at 70.5 h was -8.47%. The same measure for `N#Cc1ccc(N2CCCC2Cn2cccn2)nc1` (centres undefined): -8.46%; for `CCNC(=O)NCc1ccccc1NS(=O)(=O)c1ccccc1`: -10.5%. The same measure for `CCc1nccn1C1CCCN(C(=O)c2ccn(C)c(=O)c2)C1` (centres undefined): -0.0555%; for `CCNC(=O)NCc1cccc(N2CC=CC2)c1`: 1.58%. Turning to `CCNC(=O)NC(C)(C)C(=O)NCc1cccc(N2CC=CC2)c1`, the cytotoxicity at 70.5 h worked out at 2.33%.

Take `CCNS(=O)(=O)C1CCN(C(=O)c2ccc(F)cc2)C1` (centres undefined): the cytotoxicity at 70.5 h amounted to 1.22%. Turning to `CCNS(=O)(=O)C1CCN(C(=O)c2c(F)cc(F)cc2F)C1` (centres undefined), the cytotoxicity at 70.5 h was -2.04%.

For `CN(Cc1ccncc1)Cc1nccn1Cc1ccccc1`, the cytotoxicity at 70.5 h was -5.12%. `CCC(C)(NCC(=O)NC(C)C)c1nccs1` (centres undefined): the cytotoxicity at 70.5 h was -3.03%. Take `CC(=O)N1CCN(CC(=O)NCCCN(C)c2ccccc2)CC1`: the cytotoxicity at 70.5 h is -7.53%. As to `Cc1cnn(CC2CCCN2c2ccc(C#N)cn2)c1` (centres undefined), the cytotoxicity at 70.5 h was 6.54%. `COc1ccc(CNC(=O)N2CCOCC2C2CC2)cc1C` (centres undefined): the cytotoxicity at 70.5 h is -3.69%. Regarding `CCc1nsc(N2CCN(CC(=O)Nc3c(C)n[nH]c3C)CC2)n1`, the cytotoxicity at 70.5 h was determined as 2.39%. On to `COCCCN1CCC(NC2CSCCc3ccccc32)CC1` (centres undefined), for which the cytotoxicity at 70.5 h came to 2.22%. Consider `CCN(CC(F)(F)F)C(=O)C1CCCN(Cc2ccccn2)C1` (centres undefined), for which the cytotoxicity at 70.5 h was -3.97%. Consider `CCC1CN(Cc2c(O)ccc3oc4c(c23)CCCC4)CCO1` (centres undefined), for which the cytotoxicity at 70.5 h is 8.92%.

For `O=C(CCNc1ncccn1)NCc1cccc(OC(F)F)c1`, the cytotoxicity at 70.5 h is -11.7%.

Turning to `CNS(=O)(=O)CC(=O)N1CC2(CCCC2)c2c(F)cccc21`, the cytotoxicity at 70.5 h amounted to 0.789%. `COc1ccc2cccc(CC(=O)NCc3n[nH]c(=O)[nH]3)c2c1`: the cytotoxicity at 70.5 h is -1.52%. As for `COc1ccc2cccc(CC(=O)NCc3nccc(N)n3)c2c1`, the cytotoxicity at 70.5 h is -2.39%.

In the case of `CCOCc1nnc(NCc2ccsc2)o1`, the cytotoxicity at 70.5 h is -3.37%. As for `c1cc(CNc2nnc(Cc3ccsc3)o2)cs1`, the cytotoxicity at 70.5 h is -8.44%. The same measure for `c1coc(CNc2nnc(Cc3ccsc3)o2)c1`: -3.55%; for `CC(C)Cc1nnc(NCc2ccsc2)o1`: -5.09%; for `CCN(CC(=O)N(C)C)C(=O)C(C)(C)c1ccc2c(c1)OCCO2`: -8.05%.

Regarding `COc1ccccc1NCC(=O)NCc1ccc(-c2ccn[nH]2)cc1`, the cytotoxicity at 70.5 h was -4.94%. Take `CCn1ncc2c1CCCC2NCc1cscn1` (centres undefined): the cytotoxicity at 70.5 h is -5.01%.

Take `Cc1nc(CN2CCN(C(C)C(=O)NC3CCCC3)CC2)cs1` (centres undefined): the cytotoxicity at 70.5 h was -5.82%.

Take `Cc1ccc(C(=O)NC(CN2CCCC2)c2ccccc2)c(=O)[nH]1` (centres undefined): the cytotoxicity at 70.5 h is -3.04%. Consider `COc1ccc(F)cc1CSCC(=O)N(C)CCC#N`, for which the cytotoxicity at 70.5 h is 0.901%. The same measure for `COc1cc(F)ccc1N(C)Cc1cccnc1`: 15.7%. Consider `CCOCc1ccccc1NC(=O)NCC(C)(O)c1cccs1` (centres undefined), for which the cytotoxicity at 70.5 h was -1.02%. Take `Cc1cc(NCC(=O)N(C)C)c(C(N)=O)cc1F`: the cytotoxicity at 70.5 h was -0.553%. On to `CC(C)(C)c1nccc(N2CCN(C3CCS(=O)(=O)C3)CC2)n1` (centres undefined), for which the cytotoxicity at 70.5 h is -0.27%. Turning to `CCN1CCN(CCC(=O)NC2CC(c3cccc(Cl)c3)C2)CC1` (centres undefined), the cytotoxicity at 70.5 h was determined as 3.15%. For `Cc1ccc(N2CCCC(NC(=O)CCc3ccccn3)C2=O)cc1` (centres undefined), the cytotoxicity at 70.5 h came to 0.525%. On to `Cc1ccc(N2CCCC(NC(=O)C(C)(C)C#N)C2=O)cc1` (centres undefined), for which the cytotoxicity at 70.5 h was 1.69%. With `CC(C)Cn1cnnc1C1CCCN1C(=O)c1cc2ccccn2c1` (centres undefined) the figure was 14.5%; with `CS(=O)(=O)CCC(=O)NC1CC(c2ccccc2Cl)C1` (centres undefined), 2.56%; with `COc1ccccc1C(=O)N1CCCC1c1nncn1CC(C)C` (centres undefined), -0.719%.

Consider `Cc1cc(NCC2CC(=O)Nc3ccccc32)nc(C)n1` (centres undefined), for which the cytotoxicity at 70.5 h is -1.89%.

As to `Cc1nc(C)c(C)c(N2CCC(NCCOc3ccccc3)CC2)n1`, the cytotoxicity at 70.5 h was 17.8%. `Cc1ncc2c(n1)CN(C(C(N)=O)c1ccc(F)cc1)CC2` (centres undefined): the cytotoxicity at 70.5 h was -2.82%. As for `COc1ccc(N(C(=O)c2cnc(C)cn2)C(C)C)cc1F`, the cytotoxicity at 70.5 h is -3.96%. With `Cc1cnn(-c2cccc(N3CCN(c4cc(C)nc(C)n4)CC3)n2)c1`, the cytotoxicity at 70.5 h was 15.5%.

Consider `N#Cc1cnc2ccccc2c1N1CCN(C(=O)C2CCC2)CC1`, for which the cytotoxicity at 70.5 h was -1.5%.

With `COc1ccc(N(C(=O)c2ccccn2)C(C)C)cc1F`, the cytotoxicity at 70.5 h is -3.02%. Consider `CNC(=O)CN(C)C(=O)Cc1csc(C(C)C)n1`, for which the cytotoxicity at 70.5 h stood at 0.629%. As for `COc1cccc2c1N(Cc1nc(C3CC3)no1)CCC2`, the cytotoxicity at 70.5 h was determined as 5.14%. Take `CC(C)C(NC(=O)c1ccccc1F)C(=O)N1CCC2(CC1)OCCO2` (centres undefined): the cytotoxicity at 70.5 h was -1.01%.

On to `COc1ccc2c(c1)C(=O)N(C)C1(CCN(CC=C(C)C)CC1)N2`, for which the cytotoxicity at 70.5 h is -2.27%. Consider `COCc1ccccc1C(=O)N1CCn2c(nnc2C(C)C)C1`, for which the cytotoxicity at 70.5 h was -3.21%. Turning to `CC(C)C(O)CNC(=O)Nc1ccc(F)c(Cl)c1` (centres undefined), the cytotoxicity at 70.5 h was -0.302%. For the compound `COc1ccccc1N1CCCC(Nc2nccnc2C#N)C1` (centres undefined), the cytotoxicity at 70.5 h is -6.29%. On to `N#Cc1nccnc1NC1CCN(c2ccccc2OC(F)F)C1` (centres undefined), for which the cytotoxicity at 70.5 h is -5.2%.

For `CCn1cc(C(=O)Nc2ccc(C)cc2C(=O)OC)cn1`, the cytotoxicity at 70.5 h came to 16%.

For the compound `CCn1cc(C(=O)Nc2ccc(C)cc2C(=O)NC)cn1`, the cytotoxicity at 70.5 h was -3.07%. With `N#Cc1ccc(NCCC2CCN(CC(F)(F)F)CC2)nc1` the figure was 2.24%; with `FC(F)c1nnc2ccc(N3CCC4(CCOC4)C3)nn12` (centres undefined), 7.83%; with `COc1ccccc1S(=O)(=O)CCOC(C)C`, -3.27%.

For `Cc1ccc(OCCN(C)Cc2cscn2)cc1`, the cytotoxicity at 70.5 h was -2.46%. As for `COCCc1noc(CN2CCCc3cccc(OC)c32)n1`, the cytotoxicity at 70.5 h was -4.64%.

Turning to `COc1cccc(NC(=O)N(CCO)C2CCc3ccccc32)c1` (centres undefined), the cytotoxicity at 70.5 h is -0.598%.

Take `Cc1ccc(CCNC(=O)c2cccnc2)o1`: the cytotoxicity at 70.5 h was 30.2%. `Cc1cccc(N(CCC(N)=O)C(=O)c2cnccn2)c1`: the cytotoxicity at 70.5 h is -12.9%. Regarding `CC(=O)N1Cc2ccccc2CC1C(=O)Nc1cc(C)ccn1` (centres undefined), the cytotoxicity at 70.5 h is -15.2%. The same measure for `CC(=O)N1Cc2ccccc2CC1C(=O)Nc1ccc(N(C)C)cn1` (centres undefined): -24.9%; for `CC(=O)c1cccc(NC(=O)N(CCO)C2CCc3ccccc32)c1` (centres undefined): 26.8%; for `O=C(Nc1cn[nH]c1)N(CCCO)C1CCc2ccccc21` (centres undefined): -4.28%.

For the compound `Cc1cc(CNC(=O)N2CCOC(c3ccccc3Cl)C2)no1` (centres undefined), the cytotoxicity at 70.5 h is -7.66%. On to `CN1CCN(C)C(CNc2c(C#N)cnc3ccc(Cl)cc23)C1` (centres undefined), for which the cytotoxicity at 70.5 h is -8.13%. On to `Cc1ccc(Br)cc1C(=O)Nc1cc(C(N)=O)n(C)c1`, for which the cytotoxicity at 70.5 h is -8.22%. Consider `COCCC(=O)Nc1nc2c(OC)cc(F)cc2s1`, for which the cytotoxicity at 70.5 h is -4.65%. `CCC1COCCN1C(=O)NCc1nccn1Cc1ccccc1` (centres undefined): the cytotoxicity at 70.5 h is -2.58%. `CC(C)Cn1ccnc1CNC(=O)N1CCCC1CN1CCOCC1` (centres undefined): the cytotoxicity at 70.5 h is -4.49%. As to `CCC1c2ccccc2CCN1CCNS(C)(=O)=O` (centres undefined), the cytotoxicity at 70.5 h was -4.6%.

As to `CCCC1c2ccccc2CCN1CCS(C)(=O)=O` (centres undefined), the cytotoxicity at 70.5 h was -3.74%. As for `CC(Cc1cccc(F)c1)NCc1cnc(N2CCN(C)CC2)nc1` (centres undefined), the cytotoxicity at 70.5 h is 9.92%.

Consider `CC(C)N(Cc1ccccn1)C(=O)CCC(=O)c1ccc(F)cc1F`, for which the cytotoxicity at 70.5 h is -14.3%. Take `CN(C)C(=O)CN1CCN(c2cc(N3CCCC3CO)ncn2)CC1` (centres undefined): the cytotoxicity at 70.5 h was -4.56%. For `CCc1nc(C2CCCN2Cc2ncc(C)c(OC)c2C)no1` (centres undefined), the cytotoxicity at 70.5 h was -5.08%. For the compound `CN1CCN(C(=O)c2occc2CN2C(=O)Cc3ccccc32)CC1`, the cytotoxicity at 70.5 h was determined as 16%. Consider `CCc1noc(CN(CCS(C)(=O)=O)C(C)(C)C)n1`, for which the cytotoxicity at 70.5 h was 20.2%.

Turning to `COCCN1CCN(c2ccc(CN(C)C)cn2)CC1`, the cytotoxicity at 70.5 h was 16.1%. For the compound `CC(C)OCc1noc(C2CC=CC2)n1`, the cytotoxicity at 70.5 h was -6.7%. Take `O=C(c1cc(F)ccc1Br)N1CCN(C(=O)C2CC2)CC1`: the cytotoxicity at 70.5 h was 17.3%. Consider `O=C(c1ccc(=O)[nH]n1)N1CCC(CN2CCOCC2)CC1`, for which the cytotoxicity at 70.5 h is -9.25%. Take `O=C(c1cnccn1)N1CCC(CN2CCOCC2)CC1`: the cytotoxicity at 70.5 h is -7.46%. The same measure for `CCC(C)(N)c1nc(C(C)C)cc(=O)[nH]1` (centres undefined): -4.71%.
